According to ChEMBL document CHEMBL5247643, “Discovery and Characterization of BAY-805, a Potent and Selective Inhibitor of Ubiquitin-Specific Protease USP21” (J Med Chem, 2023):
The source made the active and inactive calls. No cut-off for these calls is given here.

Key:
Details in all cases: dose 10-50 µM
[1] = target: T1, Ubiquitin carboxyl-terminal hydrolase 2 (Homo sapiens) (UniProt O75604); assay: Inhibition of human USP2 using ubiquitin rhodamine 110 as substrate at 10 to 50 uM by fluorometric assay
T1 sequence (whole entry): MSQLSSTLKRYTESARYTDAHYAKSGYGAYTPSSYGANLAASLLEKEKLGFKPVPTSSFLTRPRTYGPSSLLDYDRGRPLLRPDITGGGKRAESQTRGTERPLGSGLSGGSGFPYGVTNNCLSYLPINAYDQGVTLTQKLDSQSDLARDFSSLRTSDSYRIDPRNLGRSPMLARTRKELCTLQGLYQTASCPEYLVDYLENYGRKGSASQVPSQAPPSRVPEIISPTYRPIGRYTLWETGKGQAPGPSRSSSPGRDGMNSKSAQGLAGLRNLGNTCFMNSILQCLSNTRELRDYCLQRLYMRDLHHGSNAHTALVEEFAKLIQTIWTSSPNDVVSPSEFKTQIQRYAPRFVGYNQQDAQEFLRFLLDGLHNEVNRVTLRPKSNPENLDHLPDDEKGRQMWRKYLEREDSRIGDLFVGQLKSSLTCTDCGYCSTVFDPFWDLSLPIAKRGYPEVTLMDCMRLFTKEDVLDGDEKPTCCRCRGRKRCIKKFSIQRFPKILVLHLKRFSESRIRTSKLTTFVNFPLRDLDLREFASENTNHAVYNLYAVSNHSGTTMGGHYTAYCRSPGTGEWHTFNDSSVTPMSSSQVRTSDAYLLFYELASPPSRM

[2] = target: Ubiquitin carboxyl-terminal hydrolase 7 (Homo sapiens) (UniProt Q93009); assay: Inhibition of human USP7 (1 to 1102 residues) expressed in Sf9 cells using ubiquitin rhodamine 110 as substrate assessed as remaining enzyme activity at 10 to 50 uM by fluorometric assay
Sequence of Ubiquitin carboxyl-terminal hydrolase 7 (Homo sapiens) (Q93009 whole entry, looked up, the tested form may be a part): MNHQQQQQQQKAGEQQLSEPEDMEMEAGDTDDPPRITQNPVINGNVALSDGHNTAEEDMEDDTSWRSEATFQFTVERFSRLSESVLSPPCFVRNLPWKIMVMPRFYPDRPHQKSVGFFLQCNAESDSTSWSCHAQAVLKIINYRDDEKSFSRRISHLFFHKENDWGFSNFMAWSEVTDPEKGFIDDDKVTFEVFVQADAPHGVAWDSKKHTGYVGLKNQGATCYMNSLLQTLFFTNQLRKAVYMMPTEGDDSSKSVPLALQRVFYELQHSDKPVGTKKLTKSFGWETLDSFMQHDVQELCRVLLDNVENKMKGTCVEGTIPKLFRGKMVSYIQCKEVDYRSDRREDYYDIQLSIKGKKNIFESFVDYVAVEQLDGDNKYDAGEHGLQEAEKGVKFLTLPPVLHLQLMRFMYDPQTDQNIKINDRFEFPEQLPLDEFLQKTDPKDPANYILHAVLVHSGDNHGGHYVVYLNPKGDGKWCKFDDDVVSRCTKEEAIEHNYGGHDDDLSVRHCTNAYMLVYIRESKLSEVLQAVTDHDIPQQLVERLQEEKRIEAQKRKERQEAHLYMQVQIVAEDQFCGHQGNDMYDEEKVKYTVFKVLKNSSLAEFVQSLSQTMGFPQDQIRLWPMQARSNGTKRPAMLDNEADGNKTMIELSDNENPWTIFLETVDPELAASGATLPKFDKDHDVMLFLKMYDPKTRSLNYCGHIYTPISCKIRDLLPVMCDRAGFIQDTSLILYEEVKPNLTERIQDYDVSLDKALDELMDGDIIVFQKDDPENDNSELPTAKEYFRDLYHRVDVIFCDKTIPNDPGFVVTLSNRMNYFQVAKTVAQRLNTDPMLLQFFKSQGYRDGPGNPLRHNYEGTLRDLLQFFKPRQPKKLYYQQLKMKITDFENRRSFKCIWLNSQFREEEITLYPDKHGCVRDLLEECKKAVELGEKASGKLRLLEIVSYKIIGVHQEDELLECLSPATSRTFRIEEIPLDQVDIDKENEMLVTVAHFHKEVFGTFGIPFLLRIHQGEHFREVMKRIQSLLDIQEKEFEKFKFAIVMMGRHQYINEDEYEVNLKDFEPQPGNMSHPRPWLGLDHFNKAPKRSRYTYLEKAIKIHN

[3] = target: Ubiquitin carboxyl-terminal hydrolase 9X (Homo sapiens) (UniProt Q93008); assay: Inhibition of human USP9X (1551 to 1970 residues) expressed in Escherichia coli BL21 (DE3) using ubiquitin rhodamine 110 as substrate assessed as remaining enzyme activity at 10 to 50 uM by fluorometric assay
Sequence of Ubiquitin carboxyl-terminal hydrolase 9X (Homo sapiens) (Q93008 whole entry, the tested form may be a part): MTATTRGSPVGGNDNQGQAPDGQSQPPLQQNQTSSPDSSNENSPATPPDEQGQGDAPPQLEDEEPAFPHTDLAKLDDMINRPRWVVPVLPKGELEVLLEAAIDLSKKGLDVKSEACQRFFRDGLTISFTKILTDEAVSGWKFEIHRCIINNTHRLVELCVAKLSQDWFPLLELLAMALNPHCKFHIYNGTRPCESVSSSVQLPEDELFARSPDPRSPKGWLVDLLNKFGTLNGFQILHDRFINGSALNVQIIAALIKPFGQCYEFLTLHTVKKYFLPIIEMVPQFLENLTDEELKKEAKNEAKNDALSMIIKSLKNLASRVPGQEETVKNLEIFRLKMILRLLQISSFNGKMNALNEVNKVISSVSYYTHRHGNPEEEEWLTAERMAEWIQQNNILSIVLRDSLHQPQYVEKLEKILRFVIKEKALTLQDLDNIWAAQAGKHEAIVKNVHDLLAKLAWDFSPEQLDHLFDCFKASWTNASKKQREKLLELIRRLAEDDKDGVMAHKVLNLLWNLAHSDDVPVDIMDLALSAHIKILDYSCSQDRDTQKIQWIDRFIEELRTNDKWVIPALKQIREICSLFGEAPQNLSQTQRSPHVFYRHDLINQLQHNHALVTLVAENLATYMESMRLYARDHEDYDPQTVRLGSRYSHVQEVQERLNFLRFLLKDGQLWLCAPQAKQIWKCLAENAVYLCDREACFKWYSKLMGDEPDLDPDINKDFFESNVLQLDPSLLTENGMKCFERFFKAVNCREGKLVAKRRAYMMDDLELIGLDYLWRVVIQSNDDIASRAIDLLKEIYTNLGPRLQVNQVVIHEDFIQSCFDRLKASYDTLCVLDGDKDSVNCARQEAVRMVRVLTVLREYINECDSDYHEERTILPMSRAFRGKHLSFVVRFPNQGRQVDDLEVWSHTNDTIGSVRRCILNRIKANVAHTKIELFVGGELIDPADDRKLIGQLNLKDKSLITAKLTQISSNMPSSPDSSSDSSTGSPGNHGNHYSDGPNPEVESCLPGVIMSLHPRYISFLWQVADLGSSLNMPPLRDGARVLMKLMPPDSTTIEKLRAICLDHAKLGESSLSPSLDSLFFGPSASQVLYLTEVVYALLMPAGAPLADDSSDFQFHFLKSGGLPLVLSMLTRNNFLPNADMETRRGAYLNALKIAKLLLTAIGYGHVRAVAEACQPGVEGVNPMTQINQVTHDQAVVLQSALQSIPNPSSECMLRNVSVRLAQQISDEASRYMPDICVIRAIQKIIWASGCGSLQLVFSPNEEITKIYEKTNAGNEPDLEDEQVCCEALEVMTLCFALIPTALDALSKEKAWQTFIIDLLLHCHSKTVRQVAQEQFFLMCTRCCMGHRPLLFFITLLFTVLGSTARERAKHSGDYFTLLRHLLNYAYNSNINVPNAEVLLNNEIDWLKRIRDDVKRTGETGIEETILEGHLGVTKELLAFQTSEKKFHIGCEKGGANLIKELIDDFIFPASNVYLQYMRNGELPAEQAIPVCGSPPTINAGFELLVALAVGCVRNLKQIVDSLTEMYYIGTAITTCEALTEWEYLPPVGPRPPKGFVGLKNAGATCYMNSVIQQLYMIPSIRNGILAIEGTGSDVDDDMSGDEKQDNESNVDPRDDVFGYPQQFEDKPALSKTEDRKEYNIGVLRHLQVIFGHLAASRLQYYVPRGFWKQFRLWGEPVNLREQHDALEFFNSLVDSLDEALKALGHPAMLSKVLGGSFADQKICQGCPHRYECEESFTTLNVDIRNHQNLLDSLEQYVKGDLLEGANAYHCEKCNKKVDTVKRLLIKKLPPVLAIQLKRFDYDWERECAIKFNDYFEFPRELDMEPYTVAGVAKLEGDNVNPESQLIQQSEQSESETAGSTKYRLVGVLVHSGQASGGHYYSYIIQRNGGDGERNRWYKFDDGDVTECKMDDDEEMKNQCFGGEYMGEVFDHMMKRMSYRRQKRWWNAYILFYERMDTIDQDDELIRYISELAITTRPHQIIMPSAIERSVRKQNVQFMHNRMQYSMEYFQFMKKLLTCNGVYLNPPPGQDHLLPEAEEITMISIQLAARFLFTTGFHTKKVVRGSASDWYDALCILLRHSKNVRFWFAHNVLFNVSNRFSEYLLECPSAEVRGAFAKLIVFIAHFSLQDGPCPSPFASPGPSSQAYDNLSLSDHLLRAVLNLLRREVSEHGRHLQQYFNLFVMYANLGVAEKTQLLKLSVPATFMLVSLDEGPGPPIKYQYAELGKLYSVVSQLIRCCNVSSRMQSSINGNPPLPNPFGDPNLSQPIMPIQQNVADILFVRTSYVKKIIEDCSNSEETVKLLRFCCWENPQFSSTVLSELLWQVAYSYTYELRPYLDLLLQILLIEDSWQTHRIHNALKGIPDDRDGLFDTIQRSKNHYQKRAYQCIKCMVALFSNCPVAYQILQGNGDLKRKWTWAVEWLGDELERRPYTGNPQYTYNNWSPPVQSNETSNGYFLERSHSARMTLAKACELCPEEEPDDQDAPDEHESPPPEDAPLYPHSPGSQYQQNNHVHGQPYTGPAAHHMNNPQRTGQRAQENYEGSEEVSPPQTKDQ

inhibition [1] | Activity [2] [%] | Activity [3] [%] | Structure (SMILES)
inactive | – | – | CC(C)C[C@H](NC(=O)C1(C(F)(F)F)CCCCC1)C(=O)Nc1nnc(Cc2ccc(C#N)cc2)s1
– | < 50 | < 50 | CC(NC(=O)C1CCCC1)C(=O)Nc1nnc(Cc2ccc([N+](=O)[O-])cc2)s1 (racemic)
